Article PMC11153716 (Frontiers in Pharmacology, 2024)

Tests used:
Format in all cases: cell-based
α1β3γ2L GABAARs [1] = molecular target: T1, α1β3γ2L GABAARs (Homo sapiens, UniProt P14867+P18507+P28472); test: whole-cell patch clamp, potentiation of GABA-induced current
T1 construct: gene GABRA1; full-length wild-type subunits co-transfected 1:1:1 (plasmid ratio) in HEK293T cells; EGFP from a separate EF1a promoter on the GABRG2 plasmid; with Gamma-aminobutyric acid receptor subunit gamma-2

α1β3γ2L GABAARs [2] = molecular target: T1, α1β3γ2L GABAARs; test: whole-cell patch clamp, inhibition of GABA-induced current; details: 100 μM compound, 1 μM GABA, 15 s pre-treatment, -50 mV, pH 7.4, 22-25 °C
α1β3γ2L GABAARs [3] = molecular target: T1, α1β3γ2L GABAARs; test: as above; details: -50 mV, pH 7.4, 22-25 °C
α1β3γ2L GABAARs [4] = molecular target: T1, α1β3γ2L GABAARs; test: as above; details: -50 mV, pH 7.4, 22-25 °C; remark: listed apart in the source

T1 sequence (P14867 28-456): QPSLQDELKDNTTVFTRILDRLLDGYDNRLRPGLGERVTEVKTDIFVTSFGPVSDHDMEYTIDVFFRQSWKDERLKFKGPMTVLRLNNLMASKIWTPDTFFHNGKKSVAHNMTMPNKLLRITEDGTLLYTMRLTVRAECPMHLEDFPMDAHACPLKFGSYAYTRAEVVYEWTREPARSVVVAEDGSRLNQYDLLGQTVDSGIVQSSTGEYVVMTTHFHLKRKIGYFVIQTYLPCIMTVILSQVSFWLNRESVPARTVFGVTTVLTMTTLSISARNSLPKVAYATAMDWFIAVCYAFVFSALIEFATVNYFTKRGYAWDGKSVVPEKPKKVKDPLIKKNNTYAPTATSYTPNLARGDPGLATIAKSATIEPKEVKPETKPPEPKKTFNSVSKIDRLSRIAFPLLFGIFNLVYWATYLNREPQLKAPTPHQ
T1 sequence (P28472 26-473): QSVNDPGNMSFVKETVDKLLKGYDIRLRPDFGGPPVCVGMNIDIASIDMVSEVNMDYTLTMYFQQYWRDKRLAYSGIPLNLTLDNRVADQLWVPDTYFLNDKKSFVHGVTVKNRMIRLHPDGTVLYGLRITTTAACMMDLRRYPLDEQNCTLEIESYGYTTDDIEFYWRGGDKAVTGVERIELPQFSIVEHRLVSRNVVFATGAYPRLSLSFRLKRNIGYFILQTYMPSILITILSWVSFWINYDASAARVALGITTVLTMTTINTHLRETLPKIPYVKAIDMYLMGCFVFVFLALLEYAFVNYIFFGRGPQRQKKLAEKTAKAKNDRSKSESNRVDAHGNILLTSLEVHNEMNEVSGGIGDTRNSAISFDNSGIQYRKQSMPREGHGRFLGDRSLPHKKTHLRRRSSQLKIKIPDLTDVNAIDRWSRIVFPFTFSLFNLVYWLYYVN
T1 sequence (P18507 40-475): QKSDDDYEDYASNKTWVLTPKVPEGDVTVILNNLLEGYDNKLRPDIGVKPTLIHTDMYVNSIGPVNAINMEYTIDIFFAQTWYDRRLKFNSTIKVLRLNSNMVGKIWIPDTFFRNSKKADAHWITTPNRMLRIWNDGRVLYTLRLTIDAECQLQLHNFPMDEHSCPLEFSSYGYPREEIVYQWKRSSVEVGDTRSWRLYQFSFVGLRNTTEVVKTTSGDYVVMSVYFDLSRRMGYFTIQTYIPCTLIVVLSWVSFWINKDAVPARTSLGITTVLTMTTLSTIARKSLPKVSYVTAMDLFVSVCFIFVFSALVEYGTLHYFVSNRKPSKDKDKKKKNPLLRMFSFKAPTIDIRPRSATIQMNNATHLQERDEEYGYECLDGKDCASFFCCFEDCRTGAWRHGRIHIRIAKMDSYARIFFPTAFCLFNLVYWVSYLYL

Cc1ccc([C@]2(C)CCCC2(C)C)cc1 [(+)-Cuparene]
EC50 (α1β3γ2L GABAARs [1]): 15.1 ± 5.94 µM

COc1cc2c(cc1OC)C(=O)NCC2 [Corydaldine]
whole-cell patch clamp, inhibition of GABA-induced current (α1β3γ2L GABAARs [2]): kaempferol and corydaldine suppressed the GABA-induced current by more than half

O=C(O)[C@H](O)Cc1ccc(O)c(O)c1 [Danshensu]
I/I0 at 300 μM (α1β3γ2L GABAARs [3]): 0.89 ± 0.02

O=C1c2c(O)cc(O)cc2O[C@H](c2cc(O)c(O)c(O)c2)[C@H]1O [Dihydromyricetin]
I/I0 at 100 μM (α1β3γ2L GABAARs [4]): 0.63 ± 0.04

CCOC1O[C@H](CO)[C@@H](O)[C@H](O)[C@H]1O (stereo partly shown) [Ethyl glucoside]
EC50 (α1β3γ2L GABAARs [1]): 37 ± 8.56 µM

O=c1c(O)c(-c2ccc(O)cc2)oc2cc(O)cc(O)c12 [Kaempferol]
whole-cell patch clamp, inhibition of GABA-induced current (α1β3γ2L GABAARs [2]): kaempferol and corydaldine suppressed the GABA-induced current by more than half

C=C1CC/C=C(\C)CC[C@@H]2[C@@H]1CC2(C)C [β-Caryophyllene]
EC50 (α1β3γ2L GABAARs [1]): 46.9 ± 6.33 µM
